In publication PMC7859440, “Transporter Gene Regulation in Sandwich Cultured Human Hepatocytes Through the Activation of Constitutive Androstane Receptor (CAR) or Aryl Hydrocarbon Receptor (AhR)” (Frontiers in Pharmacology, 2021):
Values joined by “and” are separate entries in the source; they are usually repeats but may differ in a detail not shown here. Identical values can stand only once.

Tests used:
CYP1A1 = experiment: in vitro; details: human
Method: (§1) Cryopreserved human hepatocytes were quickly thawed at 37°C and then transferred into hepatocyte thawing medium. Cells were pelleted at 100 × g for 10 min and then resuspended in hepatocyte complete plating medium (CP medium). The cells were then seeded at 65,000 cells per well in 96-well collagen I coated plates. After cell attachment (4–6 h post-seeding), CP medium was exchanged for ice-cold complete incubation medium (HI medium) containing BD Matrigel™ at the concentration of 0.25 mg/ml. The cells were then incubated overnight at 37°C in a humidified 5% CO2 incubator. […] Cell death or loss of adhesion of hepatocytes during or after treatment were examined by microscopy.
A RNeasy 96 Kit (Qiagen) was used to extract the total cellular RNA from sandwich cultured hepatocytes in 96-well plates following the manufacturer's instructions. A total volume of 200 μL RNA was obtained via the column elution provided in the RNeasy kit. Five μL RNA extraction was mixed with TaqMan® Fast Virus 1-Step Master Mix (Life Technologies) in a final reaction volume of 20 μL and qRT-PCR was achieved using a QuantStudio 6 Flex Real-Time PCR System (Life Technologies), following the manufacturer's instructions. β-actin mRNA expression in the SCHH was used as a house-keeping gene for the normalization of target gene expressions. The mRNA levels in SCHH treated with AhR or CAR activators were expressed by a fold change, compared to the gene expressions without the treatment. The 2^−ΔΔCt method ([Livak and Schmittgen, 2001]) was used to analyze the relative changes in gene expression, where the Ct is the cycle number at which the fluorescence in the reaction crosses the preset arbitrary threshold; the ΔCt represents the difference between the Ct target and reference and the ΔΔCt is the difference between the ΔCt of the test and the ΔCt of the preassigned control. Gene expression for each condition is expressed as a fold-change of mean ± standard deviation (SD) from three independent donors (each performed in triplicate). All primer and probe sets were purchased from Life Technologies (Table 2). […]

CYP3A4 = experiment: in vitro; details: human
Method: as §1
(§2) A RNeasy 96 Kit (Qiagen) was used to extract the total cellular RNA from sandwich cultured hepatocytes in 96-well plates following the manufacturer's instructions. A total volume of 200 μL RNA was obtained via the column elution provided in the RNeasy kit. Five μL RNA extraction was mixed with TaqMan® Fast Virus 1-Step Master Mix (Life Technologies) in a final reaction volume of 20 μL and qRT-PCR was achieved using a QuantStudio 6 Flex Real-Time PCR System (Life Technologies), following the manufacturer's instructions. β-actin mRNA expression in the SCHH was used as a house-keeping gene for the normalization of target gene expressions. The mRNA levels in SCHH treated with AhR or CAR activators were expressed by a fold change, compared to the gene expressions without the treatment. […] Gene expression for each condition is expressed as a fold-change of mean ± standard deviation (SD) from three independent donors (each performed in triplicate). All primer and probe sets were purchased from Life Technologies (Table 2). When concentration-dependent induction observed, the in vitro induction mRNA data were fitted using the sigmoid 3-parameter equation in GraphPad Prism (La Jolla, CA) to estimate the in vitro concentration of inducer that produced half the maximum induction values (EC50).

UGT1A1 = experiment: gene induction in sandwich-cultured human hepatocytes (qRT-PCR)
Method: as §1
(§3) A RNeasy 96 Kit (Qiagen) was used to extract the total cellular RNA from sandwich cultured hepatocytes in 96-well plates following the manufacturer's instructions. A total volume of 200 μL RNA was obtained via the column elution provided in the RNeasy kit. Five μL RNA extraction was mixed with TaqMan® Fast Virus 1-Step Master Mix (Life Technologies) in a final reaction volume of 20 μL and qRT-PCR was achieved using a QuantStudio 6 Flex Real-Time PCR System (Life Technologies), following the manufacturer's instructions. β-actin mRNA expression in the SCHH was used as a house-keeping gene for the normalization of target gene expressions. The mRNA levels in SCHH treated with AhR or CAR activators were expressed by a fold change, compared to the gene expressions without the treatment. The 2^−ΔΔCt method ([Livak and Schmittgen, 2001]) was used to analyze the relative changes in gene expression, where the Ct is the cycle number at which the fluorescence in the reaction crosses the preset arbitrary threshold; the ΔCt represents the difference between the Ct target and reference and the ΔΔCt is the difference between the ΔCt of the test and the ΔCt of the preassigned control. Gene expression for each condition is expressed as a fold-change of mean ± standard deviation (SD) from three independent donors (each performed in triplicate). All primer and probe sets were purchased from Life Technologies (Table 2). When concentration-dependent induction observed, the in vitro induction mRNA data were fitted using the sigmoid 3-parameter equation in GraphPad Prism (La Jolla, CA) to estimate the in vitro concentration of inducer that produced half the maximum induction values (EC50).

SLC10A1 (NTCP) = experiment: as above; assay type: cell-based; details: SCHH
CYP1A2 = details: SCHH, 72 h; TCDD 50 nM, OP 50 µM, CITCO 5 µM, PB 1,000 µM (highest conc.); mean ± SD, three donors
Method: as §1
A RNeasy 96 Kit (Qiagen) was used to extract the total cellular RNA from sandwich cultured hepatocytes in 96-well plates following the manufacturer's instructions. A total volume of 200 μL RNA was obtained via the column elution provided in the RNeasy kit. […] Gene expression for each condition is expressed as a fold-change of mean ± standard deviation (SD) from three independent donors (each performed in triplicate). […]

CYP2B6 = experiment: in vitro; details: human
Method: as §1, §2

ABCB1 (MDR1) = experiment: gene induction in sandwich-cultured human hepatocytes (qRT-PCR); assay type: cell-based
Method: as §1, §3

ABCB11 (BSEP) = experiment: as above; assay type: cell-based
Method: as §1, §3

ABCC2 (MRP2) = experiment: as above; assay type: cell-based
Method: as §1, §3

ABCC3 (MRP3) = experiment: as above; assay type: cell-based
Method: as §1, §3

ABCC4 (MRP4) = experiment: as above; assay type: cell-based
Method: as §1, §3

ABCC5 (MRP5) = experiment: as above; assay type: cell-based
Method: as §1, §3

ABCC6 (MRP6) = experiment: as above; assay type: cell-based
Method: as §1, §3

ABCG2 (BCRP) = experiment: as above; assay type: cell-based
Method: as §1, §3

SLC22A1 (OCT1) = experiment: as above; assay type: cell-based
Method: as §1, §3

SLCO1B1 (OATP1B1) = experiment: as above; assay type: cell-based
Method: as §1, §3

SLCO1B3 (OATP1B3) = experiment: as above; assay type: cell-based
Method: as §1, §3

SLCO2B1 (OATP2B1) = experiment: as above; assay type: cell-based
Method: as §1, §3

SLC15A1 (PEPT1) = experiment: as above; assay type: cell-based; details: SCHH, 72 h; TCDD 50 nM, OP 50 µM, CITCO 5 µM, PB 1,000 µM (highest conc.); mean ± SD, three donors
SLC16A1 (MCT1) = experiment: as above; assay type: cell-based; details: SCHH, 72 h; TCDD 50 nM, OP 50 µM, CITCO 5 µM, PB 1,000 µM (highest conc.); mean ± SD, three donors
SLC22A7 (OAT2) = experiment: as above; assay type: cell-based; details: SCHH, 72 h; TCDD 50 nM, OP 50 µM, CITCO 5 µM, PB 1,000 µM (highest conc.); mean ± SD, three donors
SLC22A9 (OAT7) = experiment: as above; assay type: cell-based; details: SCHH, 72 h; TCDD 50 nM, OP 50 µM, CITCO 5 µM, PB 1,000 µM (highest conc.); mean ± SD, three donors
SLC22A5 (OCTN2) = experiment: as above; assay type: cell-based; details: SCHH, 72 h; TCDD 50 nM, OP 50 µM, CITCO 5 µM, PB 1,000 µM (highest conc.); mean ± SD, three donors
SLC29A1 (ENT1) = experiment: as above; assay type: cell-based; details: SCHH, 72 h; TCDD 50 nM, OP 50 µM, CITCO 5 µM, PB 1,000 µM (highest conc.); mean ± SD, three donors
SLC29A2 (ENT2) = experiment: as above; assay type: cell-based; details: SCHH, 72 h; TCDD 50 nM, OP 50 µM, CITCO 5 µM, PB 1,000 µM (highest conc.); mean ± SD, three donors
SLC51A (OSTα) = experiment: as above; assay type: cell-based; details: SCHH, 72 h; TCDD 50 nM, OP 50 µM, CITCO 5 µM, PB 1,000 µM (highest conc.); mean ± SD, three donors

COc1ccc2[nH]c([S+]([O-])Cc3ncc(C)c(OC)c3C)nc2c1 (stereo not drawn) [OP, Omeprazole]
EC50 at 72 h (CYP1A1): 3.34 ± 1.39 µM
EC50 at 72 h (UGT1A1; human, sandwich-cultured human hepatocytes (SCHH)): 28.7 ± 7.32 µM
SLC10A1 gene suppression (reduction) (SLC10A1 (NTCP); 3 days, highest concentration treated): about 2 fold

CCC1(c2ccccc2)C(=O)NC(=O)NC1=O [PB, phenobarbital]
CYP1A2 mRNA fold change (CYP1A2): 1.3 ± 0.4 fold
EC50 at 72 h (CYP2B6): 726 ± 655 µM
EC50 (CYP3A4): 343 µM
UGT1A1 mRNA fold change (UGT1A1): 4.2 fold and 4.2 ± 1.9 fold
EC50 (UGT1A1; human): 639 ± 444 µM
ABCB1 (MDR1) mRNA fold change (ABCB1 (MDR1)): 1.3 ± 0.6 fold
ABCB11 (BSEP) mRNA fold change (ABCB11 (BSEP)): 1.1 ± 0.3 fold
ABCC2 (MRP2) mRNA fold change (ABCC2 (MRP2)): 1.5 ± 0.3 fold
ABCC3 (MRP3) mRNA fold change (ABCC3 (MRP3)): 1.0 ± 0.4 fold
ABCC4 (MRP4) mRNA fold change (ABCC4 (MRP4)): 1.8 ± 0.4 fold
ABCC5 (MRP5) mRNA fold change (ABCC5 (MRP5)): 1.2 ± 0.4 fold
ABCC6 (MRP6) mRNA fold change (ABCC6 (MRP6)): 1.3 ± 0.3 fold
ABCG2 (BCRP) mRNA fold change (ABCG2 (BCRP)): 1.6 ± 0.3 fold
SLC22A1 (OCT1) mRNA fold change (SLC22A1 (OCT1)): 1.5 ± 0.6 fold
SLCO1B1 (OATP1B1) mRNA fold change (SLCO1B1 (OATP1B1)): 1.5 ± 0.8 fold
SLCO1B3 (OATP1B3) mRNA fold change (SLCO1B3 (OATP1B3)): 0.9 ± 0.2 fold
SLCO2B1 (OATP2B1) mRNA fold change (SLCO2B1 (OATP2B1)): 1.8 ± 0.9 fold
SLC10A1 (NTCP) mRNA fold change (SLC10A1 (NTCP); 72 h, TCDD 50 nM, OP 50 µM, CITCO 5 µM, PB 1,000 µM (highest conc.), mean ± SD, three donors): 1.4 ± 0.7 fold
SLC15A1 (PEPT1) mRNA fold change (SLC15A1 (PEPT1)): 1.1 ± 0.5 fold
SLC16A1 (MCT1) mRNA fold change (SLC16A1 (MCT1)): 1.1 ± 0.2 fold
SLC22A7 (OAT2) mRNA fold change (SLC22A7 (OAT2)): 0.5 ± 0.2 fold
SLC22A9 (OAT7) mRNA fold change (SLC22A9 (OAT7)): 0.6 ± 0.2 fold
SLC22A5 (OCTN2) mRNA fold change (SLC22A5 (OCTN2)): 0.8 ± 0.3 fold
SLC29A1 (ENT1) mRNA fold change (SLC29A1 (ENT1)): 0.9 ± 0.2 fold
SLC29A2 (ENT2) mRNA fold change (SLC29A2 (ENT2)): 0.9 ± 0.3 fold
SLC51A (OSTα) mRNA fold change (SLC51A (OSTα)): 0.9 ± 0.2 fold
